Measurements taken from patent publication US20120015961A1, “ISOTHIOUREA DERIVATIVES OR ISOUREA DERIVATIVES HAVING BACE1 INHIBITORY ACTIVITY” (SHIONOGI & CO., LTD., priority 2009, published 2012).
pIC50: −log10 of the molar value.

Key:
[1] = test system: Neuroblastoma SH-SY5Y cells (SH/APPwt) with human wild-type β-APP excessively expressed; assay: Measurement of β-amyloid (Aβ) production inhibitory effect in cell; assay type: cell-based; conditions: Homo sapiens, SH-SY5Y, 24 h, amount needed to inhibit Aβ production by 50%, 24 hours incubation, Amyloid β1-40 HTRF
Experimental: Neuroblastoma SH-SY5Y cells (SH/APPwt) with human wild-type β-APP excessively expressed therein were prepared at 8×10^5 cells/mL, and 150 μl portions thereof were inoculated into each well of a 96-well culture plate (Falcon). The cells were cultured for 2 hours at 37° C. in a 5% gaseous carbon dioxide incubator. Then, a solution which had been preliminarily prepared by adding and suspending the test compound (DMSO (dimethyl sulfoxide) solution) so as to be 2 μl/50 μl medium was added to the cell sap. Namely, the final DMSO concentration was 1%, and the amount of the cell culture was 200 μl. After the incubation was performed for 24 hours from the addition of the test compound, 100 μl of the culture supernatant was collected from each fraction. The amount of the Aβ in each fraction was measured.
The […] was measured as follows. 10 μl of a homogeneous time resolved fluorescence (HTRF) measurement reagent (Amyloid β1-40 peptide; IBA Molecular Holding, S.A.) and 10 μl of the culture supernatant were put into a 384-well half area microplate (black microplate, Costar) and mixed with each other, and then left standing overnight at 4° C. while the light was shielded. Then, the fluorescence intensity (excitation wavelength: 337 nm, measurement wavelength: 620 nm and 665 nm) was measured with a Wallac 1420 multilabel counter (Perkin Elmer life sciences). The Aβ amount was determined from the count rate at each measurement wavelength (10000×Count 665/Count 620), and the amount needed to inhibit Aβ production by 50% (IC50) was calculated from at least six different dosages.

[2] = target: T1, hERG channel (Homo sapiens, UniProt Q12809); assay: hERG test (whole-cell patch clamp); assay type: cell-based; conditions: HEK293 cells that express hERG, 5 μM test compound for 7 minutes, peak tail current, read-out: Inhibition Rate (%)
T1 construct: expressed in transfected cells; host or cells: HEK293
Experimental: As risk assessment for QT prolongation in vitro, the action on delayed rectifier potassium current was studied using a HEK293 cell with a human delayed potassium ether-a-go-go related gene (hERG) channel expressed therein.
A cell was maintained at a membrane potential of −80 mV, then +50 mV of a depolarizing stimulus (2 seconds) was applied to the cell, further −50 mV of a repolarizing stimulus (2 seconds) was applied thereto and the induced peak tail current was measured by a whole-cell patch clamp technique. 5 μM of the test compounds was applied to the cells for 7 minutes, the inhibition rate before application of the test compound was calculated, and it was compared to the rate of vehicle group (0.5% dimethylsulfoxide solution).

[3] = target: T2, Recombinant human BACE1 (Homo sapiens, UniProt P56817); assay: Assay of BACE1 inhibiting activity; assay type: biochemical; conditions: 50% inhibitory concentration against enzymatic activity, pH 5.0, 30° C., 3 hours
T2 construct: purchased R&D Systems
Experimental: 48.5 μL of substrate peptide solution (Biotin-XSEVNLDAEFRHDSGC-Eu: Xεε-amino-n-capronic acid, Eu=Europium cryptate) was added to each well of 96-hole half-area plate (a black plate: Costar Corporation), and after addition of 0.5 μl of the test compound (dissolved in […]) and 1 μl of Recombinant human BACE1 (R&D Systems), the reaction mixture was incubated at 30° C. for 3 hours. The substrate peptide was synthesized by reacting Cryptate TBPCOOH mono SMP (CIS bio international) with Biotin-XSEVNLDAEFRHDSGC (Peptide Institute, Inc.). The final concentrations of the substrate peptide and Recombinant human BACE1 were adjusted to 18 nM and 7.4 nM respectively, and the reaction was performed in sodium acetate buffer (50 mM sodium acetate, pH 5.0, 0.008% Triton X-100). After the completion of reaction, 50 μl of 8.0 μg/ml Streptavidin-XL665 (CIS bio international) dissolved in phosphate buffer (150 mM K2HPO4—KH2PO4, pH 7.0, 0.008% Triton X-100, 0.8 M KF) was added to each well and left stand at 30° C. for an hour. Then, fluorescence intensity was measured (excitation wavelength: 320 nm, measuring wavelength: 620 nm and 665 nm) using Wallac 1420 multilabel counter (Perkin Elmer life sciences). Enzymatic activity was determined from counting ratio of each wavelength (10,000×Count 665/Count 620) and 50% inhibitory concentration against the enzymatic activity was calculated.

[4] = target: CYP3A4 (Homo sapiens, UniProt P08684); assay: CYP3A4 fluorescent MBI test; assay type: in vitro ADME; set-up: host or cells: E. coli; conditions: (IC50 without pre reaction) − (IC50 with pre reaction), pre-reaction 0 or 30 minutes
Experimental: The CYP3A4 fluorescent MBI test is a test to examine enhancement of CYP3A4 inhibition by metabolic reaction of the compound. Here, E. coli-expressing CYP3A4 was used as an enzyme, and a reaction wherein 7-benzyloxy trifluoromethylcumarin (BFC) was debenzylated by the CYP3A4 enzyme into a fluorescent metabolite 7-hydroxytrifluoromethylcumarin (HFC) was employed as an indicator reaction. The reaction conditions were as follows.
Substrate: 5.6 μM/L 7-BFC
Pre-reaction time: 0 or 30 minutes
Reaction time: 15 minutes
Reaction temperature: 25° C. (room temperature)
CYP3A4 content (E. coli-expressing enzyme): 62.5 pmol/mL at pre-reaction, 6.25 pmol/mL at reaction (10-fold diluted)
Test compound concentration: 0.625, 1.25, 2.5, 5, 10, and 20 μM (six different concentrations).
The enzyme and a test compound solution were added to a K-Pi buffer (pH 7.4) in the aforementioned amounts for the pre-reaction so that a pre-reaction solution was prepared, and this solution was put into a 96-well microplate. Part of this solution was transferred to another 96-well microplate such that it was diluted with the substrate and the K-Pi buffer to get a 10-fold diluted solution. NADPH, which is a coenzyme, was added so as to trigger the indicator reaction (without pre-reaction). As the reaction proceeded for a predetermined time period, acetonitrile/0.5 M Tris (tris hydroxyaminomethane)=4/1 was added to terminate the reaction. NADPH was also added to the residual pre-reaction solution so as to trigger the pre-reaction (with pre-reaction). As the pre-reaction proceeded for a predetermined time period, part of the solution was transferred to another microplate so that the solution was diluted with the substrate and the K-Pi buffer to get a 10-fold diluted solution, and then the indicator reaction was triggered. As the reaction proceeded for a predetermined time period, acetonitrile/0.5 M Tris (tris hydroxyaminomethane)=4/1 was added so as to terminate the reaction. With respect to each of the microplates on which the indicator reaction was performed, the fluorescence value of the metabolite 7-HFC was measured with a fluorescence plate reader (Ex=420 nm, Em=535 nm).
Control (100%) was prepared by adding only DMSO, which was used as a solvent to dissolve the drug, to the reaction system. The remaining activity (%) at each concentration after adding the test compound solution was calculated, and the IC50 values of without pre reaction and with pre reaction were calculated by the formula: y=A+((B−A)/(1+((C/x)^D))) using XLfit. The IC50 shift value was calculated by the formula: (the IC50 value of without pre reaction)−(the IC50 value of with pre reaction).

[5] = Solubility test; assay type: physicochemical; conditions: JP-I medium with 2% DMSO, pH 1.2, simulated gastric fluid, kinetic from dmso stock, turbidity after 4 hours
Experimental: A 2-fold dilution series (12 points) of a 10 mM solution of a test compound in DMSO was added to a medium (JP-I, JP-II) (2%), and solubility was assessed by 3 stages (High; >40 μM, Medium; 3-40 μM, Low; <3 μM) from a turbidity after 4 hours (crystallization information).

T1 sequence (Q12809 whole entry): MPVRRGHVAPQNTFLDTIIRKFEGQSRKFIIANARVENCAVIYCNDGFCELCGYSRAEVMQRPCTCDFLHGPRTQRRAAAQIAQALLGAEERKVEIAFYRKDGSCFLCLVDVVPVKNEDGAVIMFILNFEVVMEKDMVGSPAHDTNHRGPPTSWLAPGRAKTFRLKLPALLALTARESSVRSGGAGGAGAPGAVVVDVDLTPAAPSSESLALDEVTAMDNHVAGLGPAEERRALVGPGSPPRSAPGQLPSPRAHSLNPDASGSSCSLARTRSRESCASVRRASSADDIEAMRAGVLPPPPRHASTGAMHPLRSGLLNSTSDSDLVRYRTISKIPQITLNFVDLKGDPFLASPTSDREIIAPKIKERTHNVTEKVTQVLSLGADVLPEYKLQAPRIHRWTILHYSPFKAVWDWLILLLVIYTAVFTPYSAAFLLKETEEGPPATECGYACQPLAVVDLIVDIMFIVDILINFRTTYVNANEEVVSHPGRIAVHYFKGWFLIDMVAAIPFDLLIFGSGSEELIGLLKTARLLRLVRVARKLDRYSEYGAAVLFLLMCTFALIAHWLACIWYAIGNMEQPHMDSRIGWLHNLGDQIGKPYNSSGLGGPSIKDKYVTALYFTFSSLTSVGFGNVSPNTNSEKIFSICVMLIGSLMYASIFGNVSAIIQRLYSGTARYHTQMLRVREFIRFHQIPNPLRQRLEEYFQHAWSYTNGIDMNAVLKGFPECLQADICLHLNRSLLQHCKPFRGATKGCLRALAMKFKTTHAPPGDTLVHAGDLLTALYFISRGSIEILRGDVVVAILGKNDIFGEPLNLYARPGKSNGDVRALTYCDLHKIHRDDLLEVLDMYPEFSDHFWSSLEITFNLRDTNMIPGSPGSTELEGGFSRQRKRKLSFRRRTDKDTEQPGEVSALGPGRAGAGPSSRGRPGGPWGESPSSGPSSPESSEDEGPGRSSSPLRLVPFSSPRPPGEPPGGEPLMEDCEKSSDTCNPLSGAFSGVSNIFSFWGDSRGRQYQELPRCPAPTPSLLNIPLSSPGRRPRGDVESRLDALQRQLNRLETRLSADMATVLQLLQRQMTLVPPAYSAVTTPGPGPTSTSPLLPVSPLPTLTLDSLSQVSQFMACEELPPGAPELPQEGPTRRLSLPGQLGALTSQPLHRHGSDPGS
T2 sequence (P56817 46-501): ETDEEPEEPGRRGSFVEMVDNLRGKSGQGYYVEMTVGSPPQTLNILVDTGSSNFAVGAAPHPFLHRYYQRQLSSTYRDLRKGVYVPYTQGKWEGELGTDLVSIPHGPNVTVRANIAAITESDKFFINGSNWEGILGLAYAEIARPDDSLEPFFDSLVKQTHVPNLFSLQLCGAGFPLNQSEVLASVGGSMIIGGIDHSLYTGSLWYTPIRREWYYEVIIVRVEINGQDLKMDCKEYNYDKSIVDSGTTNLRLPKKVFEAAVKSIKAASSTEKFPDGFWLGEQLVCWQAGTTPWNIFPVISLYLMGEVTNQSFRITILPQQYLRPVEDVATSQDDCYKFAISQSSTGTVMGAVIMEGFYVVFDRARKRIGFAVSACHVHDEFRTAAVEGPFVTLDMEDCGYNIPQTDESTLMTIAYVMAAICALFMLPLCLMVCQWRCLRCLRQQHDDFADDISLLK
Chain of CYP3A4 (P08684 whole entry): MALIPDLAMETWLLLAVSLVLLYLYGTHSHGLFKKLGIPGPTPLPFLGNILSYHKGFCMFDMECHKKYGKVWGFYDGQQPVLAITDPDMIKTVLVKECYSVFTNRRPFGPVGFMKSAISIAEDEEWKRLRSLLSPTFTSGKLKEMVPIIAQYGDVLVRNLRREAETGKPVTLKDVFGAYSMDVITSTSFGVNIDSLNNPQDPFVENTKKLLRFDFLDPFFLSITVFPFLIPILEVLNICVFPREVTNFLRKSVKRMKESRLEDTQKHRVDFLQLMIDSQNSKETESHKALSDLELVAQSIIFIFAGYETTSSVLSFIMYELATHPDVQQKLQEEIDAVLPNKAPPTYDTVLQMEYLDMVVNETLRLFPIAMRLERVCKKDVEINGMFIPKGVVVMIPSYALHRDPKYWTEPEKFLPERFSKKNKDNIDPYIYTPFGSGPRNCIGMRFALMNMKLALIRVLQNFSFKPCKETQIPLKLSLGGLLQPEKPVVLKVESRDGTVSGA

pIC50 [1]	pIC50 [3]	IC50 shift [4] [nM]	solubility at 4 h [5] [µM]	SMILES	inhibition at 7 min, 5 µM [2] [%]
7.26	5.44	0		CS/C(N)=N\C1(c2cc(NC(=O)c3ccc(C#N)cn3)ccc2F)CC1 [Compound 1]	63.8
7.00		0		CS/C(N)=N\Cc1cc(NC(=O)c2ccc(C#N)cn2)ccc1F [Compound 2]	
6.76	≥ 6.00	-2000		CC#CCOc1cnc(C(=O)Nc2cccc(C/N=C(/N)SCCc3ccccc3)c2)cn1 [Compound 6]	
7.09	5.92	<-2000		CC#CCOc1cnc(C(=O)Nc2cccc(C/N=C(/N)SCC)c2)cn1 [Compound 7]	
7.40	≥ 6.00	-4000		CC#CCOc1cnc(C(=O)Nc2cccc(C/N=C(/N)SCCC)c2)cn1 [Compound 8]	
7.44	6.57	<-2000		CC#CCOc1cnc(C(=O)Nc2cccc(C/N=C(/N)SCc3ccncc3)c2)cn1.O=CO [Compound 12]	
8.40	6.85	<-3000		CC#CCOc1cnc(C(=O)Nc2ccc(F)c(C3(/N=C(/N)SC)CC3)c2)cn1 [Compound 15]	31.5
≥ 6.00			> 40	CS/C(N)=N\C1(c2cccc(NC(=O)c3ccc(C#N)cn3)c2)CCCC1 [Compound 31]	
6.59		0		CS/C(N)=N/C1CCc2ccc(NC(=O)c3ccc(C#N)cn3)cc21 (stereo not shown) [Compound 32]	
≥ 6.00			> 40	CO/C(N)=N\Cc1cc(NC(=O)c2cnc(C)cn2)ccc1F [Compound 40]	
7.55			> 40	CO/C(N)=N\C1(c2cccc(NC(=O)c3cnc(OC)cn3)c2)CC1 [Compound 45]	2.5

Second part, the molecule before the results:

SMILES	pIC50 [1]	pIC50 [3]	IC50 shift [4] [nM]	solubility at 4 h [5] [µM]	inhibition at 7 min, 5 µM [2] [%]
CC#CCOc1cnc(C(=O)Nc2cccc(C/N=C(/N)SC)c2)cn1 [Compound 3]	8.30	6.89	0		67.6
CC#CCOc1cnc(C(=O)Nc2cccc(C/N=C(/N)SCc3ccccc3)c2)cn1 [Compound 4]	6.92	≥ 6.00	1000		
C=CCS/C(N)=N\Cc1cccc(NC(=O)c2cnc(OCC#CC)cn2)c1 [Compound 5]	6.80	≥ 6.00	-2000		
CC#CCOc1cnc(C(=O)Nc2cccc(C/N=C(/N)SCCCC)c2)cn1 [Compound 9]	7.21	≥ 6.00	-5000		
CC#CCOc1cnc(C(=O)Nc2cccc(C/N=C(/N)SCc3ccccn3)c2)cn1.O=CO [Compound 11]	6.28	6.54	-2000		
CS/C(N)=N\Cc1cccc(NC(=O)c2cnc(C)cn2)c1 [Compound 18]			0		10.8
CS/C(N)=N\c1cccc2ccc(NC(=O)c3ccc(C#N)cn3)cc12 [Compound 28]	6.71	6.10	1000	> 40	60.4
CS/C(N)=N\C1(c2cccc(NC(=O)c3cnc(C)cn3)c2)CCCC1 [Compound 30]			0		14.1
CN(C)CCCO/C(N)=N/Cc1cccc(NC(=O)c2ccc(C#N)cn2)c1 [Compound 38]	≥ 6.00				8.4
